Experimental data published in patent US11000033B2, “Ketone or oxime compound, and herbicide” (NISSAN CHEMICAL CORPORATION, priority 2014, dated 2021).

Key:
Assay type in all cases: in vivo
[1] = test system: Echinochloa crus-galli var. crus-galli; assay: Test Example 3: herbicidal effect by foliage application, Wagner pot (symbol H); conditions: application herbicide amount 320 g/ha
In short: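 In a shallow-flooded alluvial soil system held at 25–30 °C, plants including rice grew for 14 days and were then sprayed over the foliage with emulsion diluted to a fixed herbicide amount. Visual rating followed at 3 weeks.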

[2] = test system: Chenopodium album; assay: Test Example 5: herbicidal effect by foliage application, plastic box (symbol O); conditions: 320 g/ha, 3 weeks after application
In short: (§1)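 Effect is rated 3 weeks after a foliar spray of water-diluted emulsion concentrate at a predetermined herbicide amount. Plants had grown 14 days in a 25° C. to 30° C. greenhouse from seed in sterilized diluvial soil.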

[3] = test system: Avena fatua; assay: Test Example 4: herbicidal effect by soil treatment (symbol I)
In short: (§2)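 Seeds were sown in sterilized diluvial soil, covered with about 1.5 cm of soil, and the soil surface was sprayed with a water-diluted emulsion of the compound at a predetermined rate. Plants grew in a greenhouse at 25° C. to 30° C.; effects were scored visually 3 weeks after application.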

[4] = test system: Chenopodium album; assay: Test Example 4: herbicidal effect by soil treatment (symbol O)
In short: as §2

[5] = test system: Digitaria ciliaris; assay: Test Example 5: herbicidal effect by foliage application, plastic box (symbol F); conditions: 320 g/ha, 3 weeks after application
In short: as §1

[6] = test system: beet; assay: Test Example 4: effect on crop by soil treatment (symbol f)
In short: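 Seeds were sown in spots on sterilized diluvial soil in a plastic box and covered with about 1.5 cm of soil. Plants were then grown in a greenhouse at 25° C. to 30° C.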

[7] = test system: rice plant; assay: Test Example 5: effect on crop by foliage application, plastic box (symbol b); conditions: 320 g/ha, 3 weeks after application
In short: (§3)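 Foliage-application test plants come from spot sowing in sterilized diluvial soil under a soil layer of about 1.5 cm, grown at 25° C. to 30° C. in a greenhouse.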

[8] = test system: rapeseed; assay: Test Example 5: effect on crop by foliage application, plastic box (symbol g); conditions: 320 g/ha, 3 weeks after application
In short: as §3

[9] = test system: Stellaria media; assay: Test Example 4: herbicidal effect by soil treatment (symbol P)
In short: as §2

[10] = test system: Echinochloa oryzacola Vasing.; assay: Test Example 2: herbicidal activity, application during weed generation in submerged conditions (symbol A); conditions: Table 23; application herbicide amount 320 g/ha; grade 0-5 by criteria of Test Example 1
In short: (§4)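 Compound was applied as a water-diluted emulsion into the standing water of flooded pots (4 cm) once co-sown weeds reached one to two leaves. Greenhouse temperature was 25° C. to 30° C., soil was alluvial, and each species was rated visually after 3 weeks.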

[11] = test system: Scirpus juncoides; assay: Test Example 2: herbicidal activity, application during weed generation in submerged conditions (symbol B); conditions: Table 23; application herbicide amount 320 g/ha; grade 0-5 by criteria of Test Example 1
In short: as §4

[12] = test system: Scirpus juncoides; assay: Test Example 1: herbicidal activity, application before weed generation in submerged conditions (symbol B); conditions: application herbicide amount 320 g/ha
In short: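 Weeds are sown into submerged alluvial soil alongside transplanted 2.5-leaf rice, and the compound, as an emulsion diluted to a set rate, is applied onto the water before emergence. Rating on the 0–5 herbicidal-ratio scale follows 3 weeks of greenhouse growth at 25–30 °C.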

[13] = application herbicide amount 320 g/ha

## CC(CC1CC(O)=C(c2c(C)cc(C)cc2C)C1=O)=NOCc1ccc(C(F)(F)F)cc1 (stereo not drawn) [1-138]
[1]
  herbicidal effect on H (Echinochloa crus-galli var. crus-galli), grade 0-5: 3 (Herbicidal ratio of 40% or higher and lower than 70%)
[2]
  O: Chenopodium album, herbicidal effect (criteria 0-5): 0 (Herbicidal ratio of 5% or lower (almost no effect))
[3]; 320 g/ha
  I: Avena fatua, herbicidal effect grade: 0 (Herbicidal ratio of 5% or lower (almost no effect))
[4]; 320 g/ha
  O: Chenopodium album, herbicidal effect grade: 0 (Herbicidal ratio of 5% or lower (almost no effect))
[5]
  F: Digitaria ciliaris, herbicidal effect (criteria 0-5): 5 (Herbicidal ratio of 90% or more (almost completely withered))
[6]; 320 g/ha
  f: beet, effect grade on crop: 0 (Herbicidal ratio of 5% or lower (almost no effect))
[7]
  b: directly sowed rice plant, effect on crop (criteria 0-5): 5 (Herbicidal ratio of 90% or more (almost completely withered))
[8]
  g: rapeseed, effect on crop (criteria 0-5): 4 (Herbicidal ratio of 70% or higher and lower than 90%)
[9]; 320 g/ha
  P: Stellaria media, herbicidal effect grade: 0 (Herbicidal ratio of 5% or lower (almost no effect))
[10]
  Herbicidal effect grade, A: Echinochloa oryzacola Vasing.: 3 (Herbicidal ratio of 40% or higher and lower than 70%)
[11]
  Herbicidal effect grade, B: Scirpus juncoides: 4 (Herbicidal ratio of 70% or higher and lower than 90%)
[12]
  Herbicidal effect grade, B: Scirpus juncoides: 5 (Herbicidal ratio of 90% or more (almost completely withered))

## CC(CC1CC(OC(=O)COc2ccccc2)=C(c2c(C)cc(-n3cc(Cl)cn3)cc2C)C1=O)=NOCC(F)(F)F (stereo not drawn) [9-012]
[1]; Table 24
  H (Echinochloa crus-galli var. crus-galli) herbicidal effect grade: 5 (Herbicidal ratio of 90% or more (almost completely withered))
[2]
  O: Chenopodium album, herbicidal effect grade: 2 (Herbicidal ratio of 20% or higher and lower than 40%)
[3]; [13]
  Herbicidal effect grade, I: Avena fatua: 0 (Herbicidal ratio of 5% or lower (almost no effect))
[4]; [13]
  Herbicidal effect grade, O: Chenopodium album: 0 (Herbicidal ratio of 5% or lower (almost no effect))
[5]
  F: Digitaria ciliaris, herbicidal effect grade: 5 (Herbicidal ratio of 90% or more (almost completely withered))
[6]; [13]
  Effect on crop grade, f: beet: 0 (Herbicidal ratio of 5% or lower (almost no effect))
[7]
  b: directly sowed rice plant, effect on crop grade: 5 (Herbicidal ratio of 90% or more (almost completely withered))
[8]
  g: rapeseed, effect on crop grade: 3 (Herbicidal ratio of 40% or higher and lower than 70%)
[9]; [13]
  Herbicidal effect grade, P: Stellaria media: 0 (Herbicidal ratio of 5% or lower (almost no effect))
[10]
  Herbicidal effect grade, A: Echinochloa oryzacola Vasing.: 5 (Herbicidal ratio of 90% or more (almost completely withered))
[11]
  Herbicidal effect grade, B: Scirpus juncoides: 4 (Herbicidal ratio of 70% or higher and lower than 90%)
[12]
  B (Scirpus juncoides) herbicidal effect grade: 4 (Herbicidal ratio of 70% or higher and lower than 90%)
